Read-outs that look alike come from different tables or passages of the source.

This test addresses EGFR T790M/L858R Ba/F3 cell line (Homo sapiens, UniProt P00533, T790M/L858R, cells depend on it). Put plainly: Ba/F3 cell proliferation model (MTS assay). The class given is cell-based, murine. As for the experimental part:
The EGFR mutant L858R, Del E746_A750, L858R/T790M, DeE746_A750/T790M, L858R/T790M/C797S and Del/T790M/C797S Ba/F3 cells were previously described (Zhou et al., Nature 462, (2009), 1070-1074). All cell lines were maintained in RPMI 1640 (Cellgro; Mediatech Inc., Herndon, Calif.) supplemented with 10% FBS 100 units/mL penicillin, 100 units/mL streptomycin, and 2 mM glutamine. L858R cells were maintained in ACL-4 media (Invitrogen, Carlsbad, Calif.) supplemented with 5% FBS, 100 units/mL penicillin, 100 units/mL streptomycin, and 2 mM glutamine. The EGFR I941R mutation was introduced via site directed mutagenesis using the Quick Change Site-Directed Mutagenesis kit (Stratagene; La Jolla, Calif.) according to the manufacturer's instructions. All constructs were confirmed by DNA sequencing. The constructs were shuttled into the retroviral vector JP1540 using the BD Creator™ System (BD Biosciences). Ba/F3 cells were infected with retrovirus and according to standard protocols, as described previously (Zhou 2009). Stable clones were obtained by selection in puromycin (2 μg/ml).
Growth and inhibition of growth was assessed by MTS assay and was performed according to previously established methods (Zhou 2009). The MTS assay is a colorimetric method for determining the number of viable cells that is based on the bioreduction of MTS by cells to a formazan product that is soluble in cell culture medium and can be detected spectrophotometrically. […] All experimental points were set up in six wells and all experiments were repeated at least three times. […] The curves were fitted using a non-linear regression model with a sigmoidal dose response.
Background: Tetrazolium assays rely on reduction of a dye to a coloured formazan, in cell work by metabolically active cells.

The mark [1] stands for this setting: absence of cetuximab, read-out: Ba/F3 cellular activity (EC50) T790M/L858R.
The mark [2] stands for this setting: read-out: Ba/F3 cellular activity (EC50) T790M/L858R + Cetuximab, presence of 1 μg/mL cetuximab.

Chain of EGFR T790M/L858R Ba/F3 cell line (P00533 whole entry T790M/L858R): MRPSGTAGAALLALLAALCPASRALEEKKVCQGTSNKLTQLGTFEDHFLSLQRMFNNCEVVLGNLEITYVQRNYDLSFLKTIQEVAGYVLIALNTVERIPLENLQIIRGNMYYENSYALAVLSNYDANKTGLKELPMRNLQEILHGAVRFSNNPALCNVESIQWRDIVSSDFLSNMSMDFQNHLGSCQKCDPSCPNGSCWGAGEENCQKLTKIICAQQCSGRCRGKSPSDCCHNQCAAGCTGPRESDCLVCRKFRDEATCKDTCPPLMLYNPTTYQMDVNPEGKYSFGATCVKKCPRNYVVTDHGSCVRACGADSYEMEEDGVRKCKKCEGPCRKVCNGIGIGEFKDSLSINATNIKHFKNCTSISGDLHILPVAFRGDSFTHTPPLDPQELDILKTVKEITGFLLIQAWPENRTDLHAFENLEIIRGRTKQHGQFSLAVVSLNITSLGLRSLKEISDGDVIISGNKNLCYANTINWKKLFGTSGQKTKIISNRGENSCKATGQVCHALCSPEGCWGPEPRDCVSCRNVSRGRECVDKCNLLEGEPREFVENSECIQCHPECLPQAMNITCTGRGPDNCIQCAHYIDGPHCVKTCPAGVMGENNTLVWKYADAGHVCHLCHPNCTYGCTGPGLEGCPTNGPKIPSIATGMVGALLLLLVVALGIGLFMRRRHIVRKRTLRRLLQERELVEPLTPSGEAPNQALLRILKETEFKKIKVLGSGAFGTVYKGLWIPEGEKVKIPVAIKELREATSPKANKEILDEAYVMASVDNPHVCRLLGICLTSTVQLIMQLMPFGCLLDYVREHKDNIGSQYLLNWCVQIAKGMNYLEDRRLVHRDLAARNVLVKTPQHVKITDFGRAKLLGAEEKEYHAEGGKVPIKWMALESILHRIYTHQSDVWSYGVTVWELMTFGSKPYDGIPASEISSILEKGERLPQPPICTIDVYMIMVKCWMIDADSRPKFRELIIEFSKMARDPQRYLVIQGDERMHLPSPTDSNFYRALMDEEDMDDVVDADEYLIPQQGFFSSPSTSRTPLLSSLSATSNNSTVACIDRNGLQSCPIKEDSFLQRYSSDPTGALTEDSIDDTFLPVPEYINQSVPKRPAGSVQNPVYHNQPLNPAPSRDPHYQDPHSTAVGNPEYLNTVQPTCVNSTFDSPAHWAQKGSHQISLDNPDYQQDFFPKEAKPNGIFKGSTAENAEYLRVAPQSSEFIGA

For the compound `C=CC(=O)Nc1ccc2c(c1)N(Cc1ccccc1)C(=O)c1cc(-c3ccc4[nH]ccc4c3)ccc1N2` [Compound I-1], the EC50 reads like this: under setting [1], no less than 750 nM; under setting [2], 500 to 750 nM.

As to `O=C(CCl)Nc1ccc2c(c1)N(Cc1ccccc1)C(=O)c1cc(-c3ccc4[nH]ccc4c3)ccc1N2` [Compound I-2], the EC50 is less than 250 nM under setting [1] and less than 250 nM under setting [2].

In the case of `C=CC(=O)Nc1ccc2c(c1)N(Cc1ccccc1)C(=O)c1cc(-c3ccc(N4CCNCC4)cc3)ccc1N2` [Compound I-3, N-(10-Benzyl-11-oxo-2-(4-(piperazin-1-yl)phenyl)-10,11-dihydro-5H-dibenzo[b,e][1,4]diazepin-8-yl)acrylamide], the EC50 by setting is: under setting [1], no less than 750 nM; under setting [2], no less than 750 nM.

Consider `O=C1c2cc(Br)ccc2Nc2ccc(F)cc2N1Cc1ccccc1` [I-a, 10-Benzyl-2-bromo-8-fluoro-5,10-dihydro-11H-dibenzo[b,e][1,4]diazepin-11-one], for which the EC50 by setting is: under setting [1], no less than 750 nM; under setting [2], 250 to 500 nM.

Values taken from patent publication US20200390783A1, “INHIBITORS OF EGFR AND METHODS OF USE THEREOF” (DANA-FARBER CANCER INSTITUTE, INC., priority 2018, published 2020).
